Literature values in patent US6458923B1, “Modified position (7) bradykinin antagonist peptides” (Scios Inc., priority 1991, dated 2002).
No end group written: not given here.

Legend:
pulmonary kininase = details: anesthetized rat; intra-aortic vs intravenous administration

RPPGFSPFR [Bradykinin, Arg Pro Pro Gly Phe Ser Pro Phe Arg]
destruction on a single passage through the pulmonary circulation (pulmonary kininase): 98-99% | half life in the systemic circulation: less than 30 seconds
